Reference: patent US5395836A, “8-tricycloalkyl xanthine derivatives” (Kyowa Hakko Kogyo Co., Ltd., priority 1993, dated 1995)

How the values were obtained:
[1] = Diuretic Effect; type: in vivo, rat (Wistar); details: for Increase in amount of K+ excreted Δ(%) / Increase in amount of Na+ excreted Δ(%) / Increase in amount of urine Δ(%): control 0
Procedure: The experiment was performed by using Wistar rats (male; 150 to 300 g). The rats were starved for 18 hours prior to the administration of a test compound (n=4 to 5). After test compounds were dissolved in 0.4% methanol, 1% dimethylsulfoxide and 0.01N sodium hydroxide/physiological saline, and administered intravenously, the physiological saline (25 ml/kg) was orally administered. Alternatively, test compounds dissolved in the physiological saline (25 ml/kg) was orally administered to the rats. Urine was collected from the rats during 4 hours after the oral administration, and urine volume was measured by a graduated measuring cylinder, and the electrolytes in the urine (Na^+ and K^+) were determined by flame photometer (775 A manufactured by Hitachi, Ltd.).

[2] = Renal-protecting Effect (Glycerol-Induced Renal Failure Model); type: in vivo, rat (Wistar); details: ip, 24 h after glycerol; for Amount of creatinine in blood serum: 4.35 ± 0.23 (compound 3); for Amount of uria nitrogen in blood serum: 139.7 ± 10.2 (compound 3)
Procedure: A renal failure is a state where the renal function is lowered and the homeostasis of a body fluid can be no longer maintained. It is known that an acute renal failure characteristic of uriniferous tubule disorder is caused by subcutaneous or intramuscular injection of glycerol to rats [Can. J. Physiol.
Male Wistar rats were kept deprived of water for 18 hours, and served for the test. A test compound was intraperitoneally administered to the rats (dosage: 0.1 ml/100 g). After 30 minutes, the rats were anesthetized with ether and 50% glycerol was subcutaneously administered (dosage: 0.8 ml/100 g) to the rats, pinching the dorsal skin. Twenty four hours after the administration of glycerol, the rats were anesthetized with ether and 5 ml of blood was collected from the abdominal aorta. The collected blood was allowed to stand for 30 minutes or longer and then centrifuged at 3,000 rpm for 10 minutes, and the amounts of the serum creatinine and the serum urine-nitrogen (UN) were determined by auto analyzer (Olympus AU510) [creatinine test (Jaffe method), UN test (enzyme method); both tests were used in Olympus AU500/550 exclusive reagent […].

[3] = molecular target: T1, adenosine A1 receptor (Rattus norvegicus, UniProt P25099); experiment: Adenosine Receptor Antagonizing Activity (Adenosine A1 Receptor Binding Test); details: rat corpus striatum; 3H-CHA 1.1 nM; 25° C., 90 min; Cheng-Prusoff
T1 construct: from tissue; host or cells: rat corpus striatum, washed membrane suspension
T1 sequence (P25099 1-326): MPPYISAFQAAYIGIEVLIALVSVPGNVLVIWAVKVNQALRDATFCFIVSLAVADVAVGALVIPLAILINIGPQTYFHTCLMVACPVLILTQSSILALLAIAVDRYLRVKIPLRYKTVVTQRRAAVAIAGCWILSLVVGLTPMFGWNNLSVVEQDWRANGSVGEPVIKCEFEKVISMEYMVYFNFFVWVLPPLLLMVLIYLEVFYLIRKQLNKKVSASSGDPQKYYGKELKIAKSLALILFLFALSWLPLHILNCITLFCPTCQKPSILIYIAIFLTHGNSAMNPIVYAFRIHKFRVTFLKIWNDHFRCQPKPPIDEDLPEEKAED
Procedure: The test was conducted according to the method of Bruns et al. [Proc. Natl. Acad. Sci. U.S.A., 77., 5547 (1980)] with slight modification.
Corpus striatum of a rat was suspended in ice-cooled 50 mM Tris hydroxymethyl aminomethane hydrochloride (Tris HCl) buffer (pH 7.7) by using Polytron homogenizer (manufactured by Kinematicas Co.). The suspension was centrifuged (50,000×g, 10 minutes), and the precipitate was suspended again in the same amount of 50 mM Tris HCl buffer. The suspension was centrifuged under the same conditions, and the final precipitate was suspended once again in 50 mM Tris HCl buffer to give a tissue concentration of 100 mg (wet weight)/ml. The tissue suspension was allowed to stand in the presence of 0.02 unit/mg tissue of adenosine deaminase (manufacture by Sigma Co.) at 37° C. for 30 minutes. The tissue suspension was centrifuged (50,000×g, 10 minutes) and to the obtained precipitates was added 50 mM Tris HCl buffer to give a tissue concentration of 10 mg (wet weight)/ml.
To 1 ml of the tissue suspension thus prepared, were added 50 μl of cyclohexyladenosine labeled with tritium (^3 H-CHA: 27 Ci/mmol, manufactured by New England Nuclear) (final concentration: 1.1 nM), and 50 μl of a test compound. The resulting mixture was allowed to stand at 25° C. for 90 minutes and then rapidly filtered by suction through a glass fiber filter (GF/C, manufactured by Whatman Co.). The filter was immediately washed three times with 5 ml each of ice-cooled 50 mM Tris HCl buffer, and transferred to a vial, and scintillator (EX-H by Wako Pure Chemical Industries, Ltd.) was added thereto. The radioactivity on the filter was determined with a liquid scintillation counter (manufactured by Packard Instrument Co.).
The inhibition rate (Ki value) of the test compound against the binding of A1 receptors (^3 H-CHA binding) was calculated by the equation of Cheng-Prusoff. [formula]

[4] = Activity on (R)-PIA-Induced Amnesia (step-through passive avoidance); type: in vivo, mouse (ddY-strain); details: oral, amnesia treatment +, n = 15, amnesia control 51.5 ± 17.0
Procedure: Anti-dementia effect of Compound (I) was determined with (R)-PIA[(R)-N^6 -(2-phenylisopropyl)adenosine]-induced dementia model [Jpn. J. Pharmacol. 52 (Suppl. II), 107P (1990)] As the experimental animal, groups of ddY-strain mice (weighing 20-25 g), each group consisting of fifteen mice, were used. The test was performed with a step-through type passive avoidance apparatus (the bright and dark box).
The bright and dark box was made up of a bright compartment (15×9×11 cm) lighted by 4 W white fluorescent light and a dark compartment (15×14×18 cm). […] In order to give a foot shock, the electric current (0.3 mA: 2 sec) may be passed through the grid floor of the dark compartment.
The compound to be tested was suspended in 0.3% aqueous solution of carboxymethyl cellulose (CMC) and the suspension was orally administered 60 minutes before the acquisition trial (to the normal control group and the amnesia control group which is subjected to the following amnesia treatment, only 0.3% CMC was administered). 30 minutes after the administration of the test compound, 0.3 mg/kg of (R)-PIA was administered intraperitoneally as amnesia-inducing treatment [(R)-PIA was not administered to the normal control group].
The training for acquisition of learning (acquisition trial) was carried out. The rat was introduced into the bright compartment, and after 10 seconds, the guillotine door was opened. The rat in the bright compartment rapidly moved into the dark compartment. As soon as the whole body of the rat entered the dark compartment, the guillotine door was closed and an electric current of 0.3 mA was passed through the grid floor for 2 seconds (foot shock). Immediately after the foot shock, the rat was taken out of the dark compartment.
The test trial for observing the retention and recall of the memory (recall trial) was carried out as follows. Twenty-four hours after the acquisition trial, the rat was placed in the bright compartment and the guillotine door was opened. The length of time before the rat entered the dark compartment (latency) was measured. The latency was measured up to 600 seconds and the latency longer than 600 seconds was recorded as 600 seconds.
The test of significance was carried out by Steel-test.

CCCn1c(=O)c2[nH]c(C34C[C@H]5CC3C[C@@H](C4)[C@@H]5O)nc2n(CCC)c1=O (relative stereo) [Compound 3, 8-(Trans-9-hydroxy-3-tricyclo[3.3.1.0^3,7]nonyl)-1,3-dipropylxanthine]
Amount of K+ excreted ([1]; iv, 3 μg/kg, n = 5, 4 hours, control 1.47 ± 0.31): 1.24 ± 0.10 mEq/kg | Na+/K+ ([1]; iv, 3 μg/kg, n = 5, 4 hours, control 1.52): 2.99 | Amount of Na+ excreted ([1]; iv, 3 μg/kg, n = 5, 4 hours, control 2.23 ± 0.61): 3.71 mEq/kg | Amount of urine ([1]; iv, 3 μg/kg, n = 5, urine over 4 hours, control 14.5 ± 1.8): 26.4 mL/kg | Increase in amount of K+ excreted Δ(%) ([1]; po, 0.01 mg/kg, 4 hours): 11% | Increase in amount of Na+ excreted Δ(%) ([1]; po, 0.01 mg/kg, 4 hours): 139% | Increase in amount of urine Δ(%) ([1]; po, 0.01 mg/kg, 4 hours): 99% | Na+/K+ ([1]; po, 0.01 mg/kg, 4 hours, control 1.00): 2.16 | Increase in amount of K+ excreted Δ(%) ([1]; po, 0.1 mg/kg, 4 hours): -9% | Increase in amount of Na+ excreted Δ(%) ([1]; po, 0.1 mg/kg, 4 hours): 148% | Increase in amount of urine Δ(%) ([1]; po, 0.1 mg/kg, 4 hours): 105% | Na+/K+ ([1]; po, 0.1 mg/kg, 4 hours, control 1.00): 2.72 | Amount of creatinine in blood serum ([2]; 0.01 mg/kg, control 3.90 ± 0.24 (compounds 6, 7)): 2.00 ± 0.21 mg/dL | Amount of uria nitrogen in blood serum ([2]; 0.01 mg/kg, control 124.9 ± 7.5 (compounds 6, 7)): 69.9 ± 8.4 mg/dL | Amount of creatinine in blood serum ([2]; 0.1 mg/kg, control 4.55 ± 0.24 (compound 5)): 2.32 ± 0.16 mg/dL | Amount of uria nitrogen in blood serum ([2]; 0.1 mg/kg, control 137.2 ± 5.0 (compound 5)): 64.4 ± 4.5 mg/dL | Ki [3]: 0.23 nM | Recall trial average reaction latency ([4]; 0.08 mg/kg): 404.3 ± 43.5 s | Recall trial average reaction latency ([4]; 0.31 mg/kg): 438.8 ± 43.0 s | Recall trial average reaction latency ([4]; 1.25 mg/kg): 445.5 ± 49.5 s | Recall trial average reaction latency ([4]; 5.0 mg/kg): 430.5 ± 43.2 s
